Test results: publication PMC13266999, “Designing Antibiotics with Inherent Resistance to Efflux as a Strategy to Revive Discovery against Multidrug-Resistant Pathogens” (Journal of Medicinal Chemistry, 2026)
Several values for one entry are separate records, joined by “and”; a condition that tells them apart may be missing. Equal values may be shown once.

Tests used:
[1] = target: T1, 5-HT transporter (h) (Homo sapiens, UniProt P31645); assay: SafetyScreen44; details: antagonist radioligand, specific binding, 1.0E-05 M
T1 construct: purchased Eurofins (SafetyScreen44)
Description: (§1) Off-target pharmacology was evaluated using the Eurofins SafetyScreen44 in vitro panel. […] Binding assays were performed using radioligand displacement, and enzyme or uptake assays measured inhibition of control activity using validated detection methods (scintillation counting, fluorimetry or photometry). Responses were expressed as percent inhibition of control binding or activity. Based on Eurofins interpretation guidelines, effects ≥50% were considered significant, effects between 25% and 50% weak to moderate, and effects <25% were not considered biologically relevant.

[2] = target: T2, 5-HT1A (h) (Homo sapiens, UniProt P08908); assay: SafetyScreen44; details: agonist radioligand, specific binding, 1.0E-05 M
T2 construct: purchased Eurofins (SafetyScreen44)
Description: as §1

[3] = target: T3, 5-HT1B (Rattus norvegicus, UniProt P28564); assay: SafetyScreen44; details: antagonist radioligand, specific binding, 1.0E-05 M
T3 construct: purchased Eurofins (SafetyScreen44)
Description: as §1

[4] = target: T4, 5-HT2B (h) (Homo sapiens, UniProt P41595); assay: SafetyScreen44; details: agonist radioligand, specific binding, 1.0E-05 M
T4 construct: purchased Eurofins (SafetyScreen44)
Description: as §1

[5] = target: T5, 5-HT3 (h) (Homo sapiens, UniProt P46098); assay: SafetyScreen44; details: antagonist radioligand, specific binding, 1.0E-05 M
T5 construct: purchased Eurofins (SafetyScreen44)
Description: as §1

[6] = target: T6, A2A (h) (Homo sapiens, UniProt P29274); assay: SafetyScreen44; details: agonist radioligand, specific binding, 1.0E-05 M
T6 construct: purchased Eurofins (SafetyScreen44)
Description: as §1

[7] = tested on: BZD (central); assay: SafetyScreen44; details: agonist radioligand, specific binding, 1.0E-05 M
Description: as §1

[8] = target: T7, CB1 (h) (Homo sapiens, UniProt P21554); assay: SafetyScreen44; details: agonist radioligand, specific binding, 1.0E-05 M
T7 construct: purchased Eurofins (SafetyScreen44 panel) assay 36
Description: as §1

[9] = target: T8, CCK1 (CCKA) (h) (Homo sapiens, UniProt P32238); assay: SafetyScreen44; details: agonist radioligand, specific binding, 1.0E-05 M
T8 construct: purchased Eurofins (SafetyScreen44)
Description: as §1

[10] = tested on: Ca2+ channel (L, dihydropyridine site); assay: SafetyScreen44; details: antagonist radioligand, specific binding, 1.0E-05 M
Description: as §1

[11] = target: T9, D1 (h) (Homo sapiens, UniProt P21728); assay: SafetyScreen44; details: antagonist radioligand, specific binding, 1.0E-05 M
T9 construct: purchased Eurofins (SafetyScreen44)
Description: as §1

[12] = target: T10, D2S (h) (Homo sapiens, UniProt P14416); assay: SafetyScreen44; details: agonist radioligand, specific binding, 1.0E-05 M
T10 construct: purchased Eurofins (SafetyScreen44)
Description: as §1

[13] = target: T11, ETA (h) (Homo sapiens, UniProt P25101); assay: SafetyScreen44; details: agonist radioligand, specific binding, 1.0E-05 M
T11 construct: purchased Eurofins (SafetyScreen44)
Description: as §1

[14] = target: T12, GR (h) (Homo sapiens, UniProt P04150); assay: SafetyScreen44; details: agonist radioligand, specific binding, 1.0E-05 M
T12 construct: purchased Eurofins (SafetyScreen44)
Description: as §1

[15] = target: T13, H1 (h) (Homo sapiens, UniProt P35367); assay: SafetyScreen44; details: antagonist radioligand, specific binding, 1.0E-05 M
T13 construct: purchased Eurofins (SafetyScreen44)
Description: as §1

[16] = target: T14, H2 (h) (Homo sapiens, UniProt P25021); assay: SafetyScreen44; details: antagonist radioligand, specific binding, 1.0E-05 M
T14 construct: purchased Eurofins (SafetyScreen44)
Description: as §1

[17] = tested on: KV channel; assay: SafetyScreen44; details: antagonist radioligand, specific binding, 1.0E-05 M
Description: as §1

[18] = target: T15, M1 (h) (Homo sapiens, UniProt P11229); assay: SafetyScreen44; details: antagonist radioligand, specific binding, 1.0E-05 M
T15 construct: purchased Eurofins (SafetyScreen44)
Description: as §1

[19] = target: T16, M2 (h) (Homo sapiens, UniProt P08172); assay: SafetyScreen44; details: antagonist radioligand, specific binding, 1.0E-05 M
T16 construct: purchased Eurofins (SafetyScreen44)
Description: as §1

[20] = target: T17, M3 (h) (Homo sapiens, UniProt P20309); assay: SafetyScreen44; details: antagonist radioligand, specific binding, 1.0E-05 M
T17 construct: purchased Eurofins (SafetyScreen44)
Description: as §1

[21] = target: T18, MAO-A (Rattus norvegicus, UniProt P21396); assay: SafetyScreen44; details: antagonist radioligand, specific binding, 1.0E-05 M
T18 construct: purchased Eurofins (SafetyScreen44)
Description: as §1

[22] = target: T19, N neuronal alpha 4beta 2 (h) (Homo sapiens, UniProt P17787+P43681); assay: SafetyScreen44; details: agonist radioligand, specific binding, 1.0E-05 M
T19 construct: purchased Eurofins (SafetyScreen44)
Description: as §1

[23] = tested on: NMDA; assay: SafetyScreen44; details: antagonist radioligand, specific binding, 1.0E-05 M
Description: as §1

[24] = tested on: Na+ channel (site 2); assay: SafetyScreen44; details: antagonist radioligand, specific binding, 1.0E-05 M
Description: as §1

[25] = target: T20, Potassium Channel hERG (human) (Homo sapiens, UniProt Q12809); assay: SafetyScreen44; details: [3H] Dofetilide, specific binding, 1.0E-05 M
T20 construct: purchased Eurofins (SafetyScreen44)
Description: as §1

[26] = target: T21, V1a (h) (Homo sapiens, UniProt P37288); assay: SafetyScreen44; details: agonist radioligand, specific binding, 1.0E-05 M
T21 construct: purchased Eurofins (SafetyScreen44)
Description: as §1

[27] = target: T22, alpha 1A (h) (Homo sapiens, UniProt P35348); assay: SafetyScreen44; details: antagonist radioligand, specific binding, 1.0E-05 M
T22 construct: purchased Eurofins (SafetyScreen44)
Description: as §1

[28] = target: T23, alpha 2A (h) (Homo sapiens, UniProt P08913); assay: SafetyScreen44; details: antagonist radioligand, specific binding, 1.0E-05 M
T23 construct: purchased Eurofins (SafetyScreen44)
Description: as §1

[29] = target: T24, beta 1 (h) (Homo sapiens, UniProt P08588); assay: SafetyScreen44; details: agonist radioligand, specific binding, 1.0E-05 M
T24 construct: purchased Eurofins (SafetyScreen44)
Description: as §1

[30] = target: T25, beta 2 (h) (Homo sapiens, UniProt P07550); assay: SafetyScreen44; details: antagonist radioligand, specific binding, 1.0E-05 M
T25 construct: purchased Eurofins (SafetyScreen44)
Description: as §1

[31] = target: T26, mu (MOP) (h) (Homo sapiens, UniProt P35372); assay: SafetyScreen44; details: agonist radioligand, specific binding, 1.0E-05 M
T26 construct: purchased Eurofins (SafetyScreen44)
Description: as §1

[32] = target: T27, norepinephrine transporter (h) (Homo sapiens, UniProt P23975); assay: SafetyScreen44; details: antagonist radioligand, specific binding, 1.0E-05 M
T27 construct: purchased Eurofins (SafetyScreen44)
Description: as §1

[33] = target: T28, COX1(h) (Homo sapiens, UniProt P23219); assay: SafetyScreen44; type: biochemical; details: enzymatic activity, 1.0E-05 M
T28 construct: purchased Eurofins (SafetyScreen44)
Description: as §1

[34] = target: T29, Lck kinase (h) (Homo sapiens, UniProt P06239); assay: SafetyScreen44; type: biochemical; details: enzymatic activity, 1.0E-05 M
T29 construct: purchased Eurofins (SafetyScreen44)
Description: as §1

[35] = target: T30, PDE3A (h) (Homo sapiens, UniProt Q14432); assay: SafetyScreen44; type: biochemical; details: enzymatic activity, 1.0E-05 M
T30 construct: purchased Eurofins (SafetyScreen44)
Description: as §1

[36] = target: T31, PDE4D2 (h) (Homo sapiens, UniProt Q08499); assay: SafetyScreen44; type: biochemical; details: enzymatic activity, 1.0E-05 M
T31 construct: purchased Eurofins (SafetyScreen44)
Description: as §1

[37] = target: T32, acetylcholinesterase (h) (Homo sapiens, UniProt P22303); assay: SafetyScreen44; type: biochemical; details: enzymatic activity, 1.0E-05 M
T32 construct: purchased Eurofins (SafetyScreen44)
Description: as §1

[38] = tested on: MRSA ATCC 33591; assay: Neutropenic murine thigh infection model; details: oral 50 mg/kg TID at 2, 8, and 14 h postinfection; at 26 h
[39] = tested on: NorA overexpressing strain NCTC 13616; assay: Reserpine growth (efflux inhibition) assay; details: for AUC of growth curve: biological replicates 1-3
Description: Statistical analyses were performed with GraphPad Prism V9.5.0. […] Unpaired t tests were used when comparing two samples in the gyrase assays.

T6 sequence (P29274 whole entry): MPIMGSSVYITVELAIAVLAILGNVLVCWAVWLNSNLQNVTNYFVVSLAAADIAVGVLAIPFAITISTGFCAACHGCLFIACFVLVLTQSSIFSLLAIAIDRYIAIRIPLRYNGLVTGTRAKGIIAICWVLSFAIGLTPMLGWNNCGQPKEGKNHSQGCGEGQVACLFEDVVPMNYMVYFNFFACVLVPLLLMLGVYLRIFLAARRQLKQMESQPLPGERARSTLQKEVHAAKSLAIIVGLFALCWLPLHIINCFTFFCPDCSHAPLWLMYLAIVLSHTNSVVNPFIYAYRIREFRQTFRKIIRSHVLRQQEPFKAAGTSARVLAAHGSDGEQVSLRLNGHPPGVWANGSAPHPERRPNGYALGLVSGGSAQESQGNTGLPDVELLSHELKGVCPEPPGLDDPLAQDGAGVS
T20 sequence (Q12809 whole entry): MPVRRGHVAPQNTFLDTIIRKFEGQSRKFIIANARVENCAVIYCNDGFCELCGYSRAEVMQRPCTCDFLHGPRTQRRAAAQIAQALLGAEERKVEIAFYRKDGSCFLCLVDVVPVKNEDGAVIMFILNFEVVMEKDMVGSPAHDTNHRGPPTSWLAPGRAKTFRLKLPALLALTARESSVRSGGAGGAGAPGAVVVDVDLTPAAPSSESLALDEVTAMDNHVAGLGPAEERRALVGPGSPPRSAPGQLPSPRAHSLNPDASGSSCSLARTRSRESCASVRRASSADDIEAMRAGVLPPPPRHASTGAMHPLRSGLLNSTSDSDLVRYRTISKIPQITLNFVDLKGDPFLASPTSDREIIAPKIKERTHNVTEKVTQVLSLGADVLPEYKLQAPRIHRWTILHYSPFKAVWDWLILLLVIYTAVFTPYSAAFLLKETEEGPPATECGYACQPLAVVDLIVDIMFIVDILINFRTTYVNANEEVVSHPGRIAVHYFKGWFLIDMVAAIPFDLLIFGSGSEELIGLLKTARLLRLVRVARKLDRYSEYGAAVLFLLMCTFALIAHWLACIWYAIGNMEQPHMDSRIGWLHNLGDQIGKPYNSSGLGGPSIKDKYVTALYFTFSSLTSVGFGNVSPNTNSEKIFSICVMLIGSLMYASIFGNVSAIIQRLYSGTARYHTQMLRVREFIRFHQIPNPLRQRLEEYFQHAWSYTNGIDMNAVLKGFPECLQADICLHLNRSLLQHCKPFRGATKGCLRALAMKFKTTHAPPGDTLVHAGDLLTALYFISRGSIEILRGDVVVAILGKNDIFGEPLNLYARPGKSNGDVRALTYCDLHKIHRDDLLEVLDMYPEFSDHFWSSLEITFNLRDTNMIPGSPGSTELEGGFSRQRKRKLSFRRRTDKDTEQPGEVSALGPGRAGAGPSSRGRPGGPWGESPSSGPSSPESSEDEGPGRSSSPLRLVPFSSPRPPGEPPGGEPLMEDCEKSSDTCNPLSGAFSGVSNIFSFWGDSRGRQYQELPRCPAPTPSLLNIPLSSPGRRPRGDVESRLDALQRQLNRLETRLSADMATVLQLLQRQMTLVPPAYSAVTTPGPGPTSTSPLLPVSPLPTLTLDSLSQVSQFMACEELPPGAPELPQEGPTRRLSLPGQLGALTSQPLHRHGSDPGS
T10 sequence (P14416 1-414 isoform P14416-2): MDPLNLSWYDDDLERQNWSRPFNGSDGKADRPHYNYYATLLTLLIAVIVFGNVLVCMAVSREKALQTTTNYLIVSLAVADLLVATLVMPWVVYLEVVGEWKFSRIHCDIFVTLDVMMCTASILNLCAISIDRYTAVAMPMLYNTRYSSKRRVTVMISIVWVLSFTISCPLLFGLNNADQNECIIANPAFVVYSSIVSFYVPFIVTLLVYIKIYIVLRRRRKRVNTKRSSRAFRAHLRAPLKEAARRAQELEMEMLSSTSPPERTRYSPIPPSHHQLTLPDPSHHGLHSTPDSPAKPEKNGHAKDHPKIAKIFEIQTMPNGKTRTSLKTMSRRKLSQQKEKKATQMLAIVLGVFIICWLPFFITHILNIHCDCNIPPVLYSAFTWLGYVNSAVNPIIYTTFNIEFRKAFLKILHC
T27 sequence (P23975 whole entry): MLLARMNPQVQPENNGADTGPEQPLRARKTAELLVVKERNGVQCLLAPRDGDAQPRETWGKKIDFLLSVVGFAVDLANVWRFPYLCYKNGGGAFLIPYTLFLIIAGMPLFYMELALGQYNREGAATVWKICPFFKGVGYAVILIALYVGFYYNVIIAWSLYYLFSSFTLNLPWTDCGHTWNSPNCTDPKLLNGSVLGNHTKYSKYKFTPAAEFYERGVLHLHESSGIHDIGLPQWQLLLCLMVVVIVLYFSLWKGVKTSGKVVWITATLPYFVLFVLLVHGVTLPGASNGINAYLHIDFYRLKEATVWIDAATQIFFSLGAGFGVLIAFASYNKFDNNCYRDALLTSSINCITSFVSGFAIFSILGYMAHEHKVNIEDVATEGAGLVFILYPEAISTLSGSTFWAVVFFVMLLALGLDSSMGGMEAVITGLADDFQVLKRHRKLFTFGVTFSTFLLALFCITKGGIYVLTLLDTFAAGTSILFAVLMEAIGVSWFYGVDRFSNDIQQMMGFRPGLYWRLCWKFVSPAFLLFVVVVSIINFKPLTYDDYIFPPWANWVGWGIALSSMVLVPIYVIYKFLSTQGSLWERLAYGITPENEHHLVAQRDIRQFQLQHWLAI
T1 sequence (P31645 whole entry): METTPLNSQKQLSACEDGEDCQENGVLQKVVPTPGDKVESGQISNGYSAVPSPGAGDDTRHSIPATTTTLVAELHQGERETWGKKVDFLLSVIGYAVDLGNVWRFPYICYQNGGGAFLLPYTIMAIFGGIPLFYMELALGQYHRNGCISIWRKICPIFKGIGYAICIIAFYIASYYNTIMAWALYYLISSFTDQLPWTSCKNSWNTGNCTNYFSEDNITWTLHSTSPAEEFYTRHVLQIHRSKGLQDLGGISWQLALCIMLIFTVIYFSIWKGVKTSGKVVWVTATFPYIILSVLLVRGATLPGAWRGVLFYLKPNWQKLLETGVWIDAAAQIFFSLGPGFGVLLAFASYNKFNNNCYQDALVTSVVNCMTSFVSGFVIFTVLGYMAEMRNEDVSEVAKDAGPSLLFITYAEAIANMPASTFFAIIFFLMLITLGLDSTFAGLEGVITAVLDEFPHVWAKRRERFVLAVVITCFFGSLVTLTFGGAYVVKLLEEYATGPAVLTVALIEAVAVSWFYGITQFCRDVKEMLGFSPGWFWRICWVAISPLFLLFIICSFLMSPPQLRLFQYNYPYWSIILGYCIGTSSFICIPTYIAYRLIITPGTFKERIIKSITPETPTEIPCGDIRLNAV
T4 sequence (P41595 whole entry): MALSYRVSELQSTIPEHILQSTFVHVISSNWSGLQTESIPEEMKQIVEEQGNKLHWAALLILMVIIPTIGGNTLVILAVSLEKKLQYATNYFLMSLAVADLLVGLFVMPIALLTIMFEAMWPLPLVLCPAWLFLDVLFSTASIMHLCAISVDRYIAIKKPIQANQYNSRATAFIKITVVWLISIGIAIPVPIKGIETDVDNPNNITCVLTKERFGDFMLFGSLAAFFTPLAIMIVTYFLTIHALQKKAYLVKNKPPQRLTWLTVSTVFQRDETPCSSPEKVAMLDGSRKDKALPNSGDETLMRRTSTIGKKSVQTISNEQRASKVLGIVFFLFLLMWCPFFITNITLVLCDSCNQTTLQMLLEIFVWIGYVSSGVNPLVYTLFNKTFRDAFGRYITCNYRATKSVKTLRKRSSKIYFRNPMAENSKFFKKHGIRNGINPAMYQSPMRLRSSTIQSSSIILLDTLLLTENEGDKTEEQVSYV
T11 sequence (P25101 21-427): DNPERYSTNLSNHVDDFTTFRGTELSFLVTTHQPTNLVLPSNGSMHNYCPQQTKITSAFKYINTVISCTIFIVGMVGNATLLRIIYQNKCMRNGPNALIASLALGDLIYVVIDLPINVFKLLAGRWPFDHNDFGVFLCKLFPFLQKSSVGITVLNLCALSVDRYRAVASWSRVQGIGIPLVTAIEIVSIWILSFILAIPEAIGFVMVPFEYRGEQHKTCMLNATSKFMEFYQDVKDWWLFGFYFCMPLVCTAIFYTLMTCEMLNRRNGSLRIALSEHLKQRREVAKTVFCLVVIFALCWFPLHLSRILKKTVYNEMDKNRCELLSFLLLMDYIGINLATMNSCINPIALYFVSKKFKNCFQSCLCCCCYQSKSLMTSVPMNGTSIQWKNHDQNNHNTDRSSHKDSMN
T26 sequence (P35372 whole entry): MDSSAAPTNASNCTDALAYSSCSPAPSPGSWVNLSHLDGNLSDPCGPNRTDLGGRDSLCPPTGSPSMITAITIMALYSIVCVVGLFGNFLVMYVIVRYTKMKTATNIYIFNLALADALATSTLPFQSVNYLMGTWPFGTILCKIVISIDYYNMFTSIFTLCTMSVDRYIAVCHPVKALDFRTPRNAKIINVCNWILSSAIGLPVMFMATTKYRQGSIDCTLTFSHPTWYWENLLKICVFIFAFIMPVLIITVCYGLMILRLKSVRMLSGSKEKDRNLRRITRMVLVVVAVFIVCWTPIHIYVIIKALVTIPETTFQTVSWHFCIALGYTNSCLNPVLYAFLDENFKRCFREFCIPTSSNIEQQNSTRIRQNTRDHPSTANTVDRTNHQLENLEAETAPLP
T25 sequence (P07550 whole entry): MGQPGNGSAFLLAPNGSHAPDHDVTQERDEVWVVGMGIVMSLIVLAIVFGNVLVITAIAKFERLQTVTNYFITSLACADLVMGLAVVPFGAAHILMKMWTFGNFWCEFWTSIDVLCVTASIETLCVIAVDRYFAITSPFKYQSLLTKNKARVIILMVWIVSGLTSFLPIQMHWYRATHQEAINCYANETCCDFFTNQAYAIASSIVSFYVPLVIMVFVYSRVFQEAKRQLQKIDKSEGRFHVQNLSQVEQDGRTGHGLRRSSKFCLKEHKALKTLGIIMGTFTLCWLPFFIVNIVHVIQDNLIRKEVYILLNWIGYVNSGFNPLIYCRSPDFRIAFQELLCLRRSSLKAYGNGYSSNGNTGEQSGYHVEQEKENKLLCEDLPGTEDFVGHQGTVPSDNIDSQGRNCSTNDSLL

Cc1cc(C)nc(N[C@@H]2CCN(c3c(F)cc4c(=O)c(C(=O)O)cn5c4c3OC[C@@H]5C)C2)n1 [Compound 50, (S)-10-((R)-3-((4,6-Dimethylpyrimidin-2-yl)amino)pyrrolidin-1-yl)-9-fluoro-3-methyl-7-oxo-2,3-dihydro-7H-[1,4]oxazino[2,3,4-ij]quinoline-6-carboxylic acid]
inhibition at 10 µM [1]: 2.23% | inhibition at 10 µM [2]: -2.72% | inhibition at 10 µM [3]: 10.2% | inhibition at 10 µM [4]: 9.78% | inhibition at 10 µM [5]: 7.02% | % Inhibition [6]: 82.8099% and 82.8% | % Inhibition [7]: 22.3569% | inhibition at 10 µM [8]: -8.28% | inhibition at 10 µM [9]: -39.6% | % Inhibition [10]: -7.1517% | inhibition at 10 µM [11]: -5.66% | inhibition at 10 µM [12]: -3.93% | inhibition at 10 µM [13]: 0.266% | inhibition at 10 µM [14]: 9.19% | inhibition at 10 µM [15]: 5.57% | inhibition at 10 µM [16]: -9.63% | % Inhibition [17]: 3.113% | inhibition at 10 µM [18]: 25.5% | inhibition at 10 µM [19]: 62.8% | inhibition at 10 µM [20]: 3.56% | inhibition at 10 µM [21]: 15% | inhibition at 10 µM [22]: 0.422% | % Inhibition [23]: -5.137% | % Inhibition [24]: -10.2569% | % Inhibition [25]: -1.132% | inhibition at 10 µM [26]: 9.53% | inhibition at 10 µM [27]: 6.96% | inhibition at 10 µM [28]: 23.5% | inhibition at 10 µM [29]: 12.5% | inhibition at 10 µM [30]: -4.15% | inhibition at 10 µM [31]: 0.499% | inhibition at 10 µM [32]: 2.06% | inhibition at 10 µM [33]: 15% | inhibition at 10 µM [34]: 2.87% | inhibition at 10 µM [35]: 12.2% | inhibition at 10 µM [36]: 31.8% | inhibition at 10 µM [37]: 34.2% | bacterial counts in thigh [38]: 4.6 log10 CFU/g | reduction relative to the vehicle [38]: 4.1 log10 CFU/g | AUC of growth curve ([39]; 0.25 MIC + R (reserpine)): 2.985 and 3.342 and 3.404 | AUC of growth curve ([39]; 0.25 MIC): 3.519 and 4.693 and 4.851 | AUC of growth curve ([39]; 0.5 MIC + R (reserpine)): 1.548 and 1.586 and 2.254 | AUC of growth curve ([39]; 0.5 MIC): 2.203 and 2.425 and 1.859 | efflux liability in reserpine assay ([39]; 0.5x MIC with vs without reserpine): minimal shift

C[C@H]1COc2c(N3CCN(C)CC3)c(F)cc3c(=O)c(C(=O)O)cn1c23 [Levofloxacin, (S)-9-Fluoro-3-methyl-10-(4-methylpiperazin-1-yl)-7-oxo-2,3-dihydro-7H-[1,4]oxazino[2,3,4-ij]quinoline-6-carboxylic acid, reference compound]
bacterial counts in thigh [38]: 4.51 log10 CFU/g
